For the data set, the system named is CCRIS mutagenicity, Ames/micronucleus/aberration tests. In words: CCRIS mutagenicity studies.
[1] abbreviates: Test System: AMES SALMONELLA TYPHIMURIUM, Strain/Indicator: TA97, Metabolic Activation: NONE, Method: PREINCUBATION
Setting [2] is: Test System: AMES SALMONELLA TYPHIMURIUM, Strain/Indicator: TA97, Metabolic Activation: RAT, LIVER, S-9, AROCLOR 1254 (10 OR 30%), Method: PREINCUBATION
Setting [3] is: Test System: AMES SALMONELLA TYPHIMURIUM, Strain/Indicator: TA98, Metabolic Activation: NONE, Method: PREINCUBATION
[4] abbreviates: Test System: AMES SALMONELLA TYPHIMURIUM, Strain/Indicator: TA100, Metabolic Activation: NONE, Method: PREINCUBATION
[5] abbreviates: Test System: AMES SALMONELLA TYPHIMURIUM, Strain/Indicator: TA1535, Metabolic Activation: NONE, Method: PREINCUBATION

The structures appear in SMILES notation. Active and inactive are the calls of the source. No rule for the calls is given here.

On to `[CH3][Hg][Cl]`, for which the mutagenic call reads like this: (End Point: IN VITRO CHROMOSOMAL ABERRATIONS, Test System: CHO CELLS, Metabolic Activation: NONE) “active; positive (structural changes)”; (End Point: IN VITRO MICRONUCLEUS, Test System: CHL/IU CELLS, Metabolic Activation: NONE) “active; positive”; (End Point: IN VITRO MICRONUCLEUS, Test System: HUMAN PERIPHERAL LYMPHOCYTES, Metabolic Activation: NONE) “active; positive”; (End Point: IN VITRO MICRONUCLEUS, Test System: HUMAN PERIPHERAL LYMPHOCYTES, Metabolic Activation: NONE, Method: FISH (CENTROMERIC SIGNAL CONTENT)) “active; positive”; (Test System: AMES SALMONELLA TYPHIMURIUM, Strain/Indicator: TA97, Metabolic Activation: HAMSTER, LIVER, S-9, AROCLOR 1254 (10 OR 30%), Method: PREINCUBATION) “inactive; negative”; under setting [1], “inactive; negative”. Besides, the mutagenic call under setting [2] was “inactive; negative”; the mutagenic call (Test System: AMES SALMONELLA TYPHIMURIUM, Strain/Indicator: TA98, Metabolic Activation: HAMSTER, LIVER, S-9, AROCLOR 1254 (10 OR 30%), Method: PREINCUBATION) was “inactive; negative”; the mutagenic call under setting [3] was “inactive; negative”; the mutagenic call (Test System: AMES SALMONELLA TYPHIMURIUM, Strain/Indicator: TA98, Metabolic Activation: RAT, LIVER, S-9, AROCLOR 1254 (10 OR 30%), Method: PREINCUBATION) is “inactive; negative”; the mutagenic call (Test System: AMES SALMONELLA TYPHIMURIUM, Strain/Indicator: TA100, Metabolic Activation: HAMSTER, LIVER, S-9, AROCLOR 1254 (10 OR 30%), Method: PREINCUBATION) is “inactive; negative”; the mutagenic call under setting [4] was “inactive; negative”. Further, the mutagenic call was “inactive; negative” (Test System: AMES SALMONELLA TYPHIMURIUM, Strain/Indicator: TA100, Metabolic Activation: RAT, LIVER, S-9, AROCLOR 1254 (10 OR 30%), Method: PREINCUBATION); “inactive; negative” (Test System: AMES SALMONELLA TYPHIMURIUM, Strain/Indicator: TA1535, Metabolic Activation: HAMSTER, LIVER, S-9, AROCLOR 1254 (10 OR 30%), Method: PREINCUBATION); “inactive; negative” under setting [5]; “inactive; negative” (Test System: AMES SALMONELLA TYPHIMURIUM, Strain/Indicator: TA1535, Metabolic Activation: RAT, LIVER, S-9, AROCLOR 1254 (10 OR 30%), Method: PREINCUBATION); “inactive; negative” (Test System: AMES SALMONELLA TYPHIMURIUM, Strain/Indicator: TA1537, Metabolic Activation: HAMSTER, LIVER, S-9, AROCLOR 1254 (10 OR 30%), Method: PREINCUBATION); “inactive; negative” (Test System: AMES SALMONELLA TYPHIMURIUM, Strain/Indicator: TA1537, Metabolic Activation: NONE, Method: PREINCUBATION). Besides, the mutagenic call was “inactive; negative” (Test System: AMES SALMONELLA TYPHIMURIUM, Strain/Indicator: TA1537, Metabolic Activation: RAT, LIVER, S-9, AROCLOR 1254 (10 OR 30%), Method: PREINCUBATION); “active; positive” (Test System: E. COLI, Strain/Indicator: WP2 UVRA, Metabolic Activation: NONE, Method: SPOT TEST); “active; positive” (Test System: E. COLI, Strain/Indicator: WP2 UVRA, Metabolic Activation: NONE, Method: STANDARD PLATE).

For the compound `Nc1c(S(=O)(=O)O)cc(Nc2cccc(S(=O)(=O)CCOS(=O)(=O)O)c2)c2c1C(=O)c1ccccc1C2=O`, the mutagenic call (Test System: MOUSE LYMPHOMA, Strain/Indicator: L5178Y (TK+/TK-), Metabolic Activation: NONE, Method: SUSPENSION/PLATE) is “active; positive”.

With `N#CCO`, the mutagenic call by setting is: (Test System: AMES SALMONELLA TYPHIMURIUM, Strain/Indicator: TA97, Metabolic Activation: HAMSTER, LIVER, S-9, AROCLOR 1254 (10%), Method: PREINCUBATION) “inactive; negative”; (Test System: AMES SALMONELLA TYPHIMURIUM, Strain/Indicator: TA97, Metabolic Activation: HAMSTER, LIVER, S-9, AROCLOR 1254 (30%), Method: PREINCUBATION) “inactive; negative”; under setting [1], “inactive; negative”; under setting [2], “inactive; negative”; (Test System: AMES SALMONELLA TYPHIMURIUM, Strain/Indicator: TA98, Metabolic Activation: HAMSTER, LIVER, S-9, AROCLOR 1254 (10%), Method: PREINCUBATION) “inactive; negative”; (Test System: AMES SALMONELLA TYPHIMURIUM, Strain/Indicator: TA98, Metabolic Activation: HAMSTER, LIVER, S-9, AROCLOR 1254 (30%), Method: PREINCUBATION) “inactive; negative”. Further, the mutagenic call is, setting by setting: under setting [3], “inactive; negative”; (Test System: AMES SALMONELLA TYPHIMURIUM, Strain/Indicator: TA98, Metabolic Activation: RAT, LIVER, S-9, AROCLOR 1254 (10%), Method: PREINCUBATION) “inactive; negative”; (Test System: AMES SALMONELLA TYPHIMURIUM, Strain/Indicator: TA98, Metabolic Activation: RAT, LIVER, S-9, AROCLOR 1254 (30%), Method: PREINCUBATION) “inactive; negative”; (Test System: AMES SALMONELLA TYPHIMURIUM, Strain/Indicator: TA100, Metabolic Activation: HAMSTER, LIVER, S-9, AROCLOR 1254 (10%), Method: PREINCUBATION) “inactive; negative”; (Test System: AMES SALMONELLA TYPHIMURIUM, Strain/Indicator: TA100, Metabolic Activation: HAMSTER, LIVER, S-9, AROCLOR 1254 (30%), Method: PREINCUBATION) “inactive; negative”; under setting [4], “inactive; negative”. In addition, the mutagenic call is, setting by setting: (Test System: AMES SALMONELLA TYPHIMURIUM, Strain/Indicator: TA100, Metabolic Activation: RAT, LIVER, S-9, AROCLOR 1254 (10%), Method: PREINCUBATION) “inactive; negative”; (Test System: AMES SALMONELLA TYPHIMURIUM, Strain/Indicator: TA100, Metabolic Activation: RAT, LIVER, S-9, AROCLOR 1254 (30%), Method: PREINCUBATION) “inactive; negative”; (Test System: AMES SALMONELLA TYPHIMURIUM, Strain/Indicator: TA1535, Metabolic Activation: HAMSTER, LIVER, S-9, AROCLOR 1254 (10%), Method: PREINCUBATION) “inactive; negative”; (Test System: AMES SALMONELLA TYPHIMURIUM, Strain/Indicator: TA1535, Metabolic Activation: HAMSTER, LIVER, S-9, AROCLOR 1254 (30%), Method: PREINCUBATION) “inactive; negative”; under setting [5], “inactive; negative”; (Test System: AMES SALMONELLA TYPHIMURIUM, Strain/Indicator: TA1535, Metabolic Activation: RAT, LIVER, S-9, AROCLOR 1254 (10%), Method: PREINCUBATION) “inactive; negative”. Besides, the mutagenic call (Test System: AMES SALMONELLA TYPHIMURIUM, Strain/Indicator: TA1535, Metabolic Activation: RAT, LIVER, S-9, AROCLOR 1254 (30%), Method: PREINCUBATION) was “inactive; negative”.

With `Nc1c2cc([N+](=O)[O-])ccc2nc2ccc([N+](=O)[O-])cc12`, the mutagenic call (Test System: AMES SALMONELLA TYPHIMURIUM, Strain/Indicator: TA1537, Metabolic Activation: NONE) is “active; positive”.

Regarding `[CH3][Sn]([Cl])([Cl])[Cl]`, the mutagenic call was “inactive; negative” (Test System: AMES SALMONELLA TYPHIMURIUM, Strain/Indicator: TA98, Metabolic Activation: NONE, Method: SUSPENSION/PLATE) and “inactive; negative” (Test System: AMES SALMONELLA TYPHIMURIUM, Strain/Indicator: TA100, Metabolic Activation: NONE, Method: SUSPENSION/PLATE).

Turning to `Nc1cc(Cl)c(Cl)cc1Cl`, the mutagenic call (Test System: UDS RODENT HEPATOCYTES, Strain/Indicator: THY INCORP (NON-S-PHASE), Metabolic Activation: NONE, Method: AUTORADIOGRAPHY) was “inactive; negative”.

As to `Oc1cccc2ncccc12`, the mutagenic call under setting [3] is “inactive; negative”; the mutagenic call (Test System: AMES SALMONELLA TYPHIMURIUM, Strain/Indicator: TA98, Metabolic Activation: RAT, LIVER, S-9, Method: PREINCUBATION) is “active; positive”; the mutagenic call under setting [4] was “inactive; negative”; the mutagenic call (Test System: AMES SALMONELLA TYPHIMURIUM, Strain/Indicator: TA100, Metabolic Activation: NONE, Method: STANDARD PLATE) was “inactive; negative”; the mutagenic call (Test System: AMES SALMONELLA TYPHIMURIUM, Strain/Indicator: TA100, Metabolic Activation: RAT, LIVER, S-9, AROCLOR 1254 (10% OR 20%), Method: STANDARD PLATE) is “active; positive”; the mutagenic call (Test System: AMES SALMONELLA TYPHIMURIUM, Strain/Indicator: TA100, Metabolic Activation: RAT, LIVER, S-9, Method: PREINCUBATION) is “active; positive”.
